Read-outs that look alike come from different tables or passages of the source. Peptide text beside a SMILES is read from it.

One test concerns the target HLA-C0102 (Homo sapiens, UniProt P10321, A176E/A330V/A35S/A97T/C350S/D114A/D33F/L171W/L180R/L218V/M285V/M309V/M331V/P208H/Q277E/Q291P/R121W/R243W/R30K/S123C/S140Y/S297R/T329A/T363A/V272M/V319A). Kind of test: Competitive peptide binding assay, CIR-C0102. The settings on record: for inhibition at 5 µM / inhibition at 15 µM: read-out: Inhibition % of Cy5-reference peptide binding. Here is the method:
(§1) Then, competitive peptide binding assays were performed.

The target of the next test is HLA-C0801 (Homo sapiens, UniProt P10321, A176T/A330V/A97T/C350S/D114A/D138N/D33Y/E201K/E299G/L171W/L218V/M285V/M309V/M331V/P208H/Q277E/Q291P/R59Q/S123Y/S140F/S297R/S48A/T329A/T363A/V319A/V328M). Nature of the test: Competitive peptide binding assay, CIR-C0801. The conditions noted are these: HMy2.CIR-C0801 cells, reference Cy5-[…], class from inhibition at 5 and 15 μM, flow cytometry MFI; read-out: Binding affinity with HLA-C0801. The method, then: as §1

The target in another test is HLA-C0304 (Homo sapiens, UniProt P10321, A176E/A330V/A97T/C25G/C350S/D114A/D33Y/E197K/L119I/L127V/L171W/L218V/M285V/M309V/M331V/P208H/Q277E/Q291P/R243W/R45H/S123Y/S140Y/S297R/S48A/T118I/T187L/T329A/T363A/V319A). Nature of the test: Competitive peptide binding assay, CIR-C0304. The conditions noted are these: HMy2.CIR-C0304 cells, reference Cy5-[…], class from inhibition at 5 and 15 μM, flow cytometry MFI; read-out: Binding affinity with HLA-C0304. The method, then: as §1

The target of another test is HLA-C0602 (Homo sapiens, UniProt P10321, A176E/A330V/C350S/L171W/L180W/L218V/M285V/M309V/M331V/N104K/P208H/Q277E/Q291P/R121W/S101N/S123Y/S297R/T329A/T363A/V319A/V328M). Kind of test: Competitive peptide binding assay, CIR-C0602.
The next test deals with HLA-C0302 (Homo sapiens, UniProt P10321, A176E/A330V/A97T/C25G/C350S/D114A/D33Y/E197K/L127V/L171W/L218V/M285V/M309V/M331V/P208H/Q277E/Q291P/R243W/R45H/S123Y/S297R/S48A/T118I/T187L/T329A/T363A/V319A). Nature of the test: Competitive peptide binding assay, CIR-C0302. The conditions noted are these: HMy2.CIR-C0302 cells, reference Cy5-[…], class from inhibition at 5 and 15 μM, flow cytometry MFI; read-out: Binding affinity with HLA-C0302. The method, then: as §1

For the next test, the target named is HLA-C0702 (Homo sapiens, UniProt P10321). Nature of the test: Competitive peptide binding assay, CIR-C0702.
The target in the next test is HLA-C0401 (Homo sapiens, UniProt P10321, A176E/A330V/A35S/A73E/C25G/C350S/D138N/D33S/E299K/L171W/L180R/L218V/M285V/M309V/M331V/N104K/P208H/Q277E/Q291P/R243W/R38W/S101N/S123F/S140F/S297R/S48A/T329A/T363A/V319A/V327M). Nature of the test: Competitive peptide binding assay, CIR-C0401. The conditions noted are these: HMy2.CIR-C0401 cells, reference Cy5-[…], class from inhibition at 5 and 15 μM, flow cytometry MFI; read-out: Binding affinity with HLA-C0401. The method, then:
as §1

Another test has as its target HLA-B4001 (Homo sapiens, UniProt P01889, A65T/A93T/A95T/D138N/D98Y/E176V/E69K/N87E/Q56L/Q94N/R180L/S121R/S35A/S48T/T167S/V36M/W171L/Y33H/Y91S). Nature of the test: Competitive peptide binding assay, CIR-B4001. The settings on record: HMy2.CIR-B4001 cells, reference Cy5-[…], class from inhibition at 5 and 15 μM, flow cytometry MFI; read-out: Binding affinity with HLA-B4001. The method, then: as §1

A further test concerns the target HLA-B1301 (Homo sapiens, UniProt P01889, A65T/A93T/A95T/D138N/D201E/D98Y/E176V/E204Q/E69M/E70A/G107R/K202T/L105A/L119I/N104T/N87E/Q94N/R106L/R155S/R169L/R180L/S101N/S121R/S35A/S48T/T118I/V127L/V36M/Y140L/Y91S). Kind of test: Competitive peptide binding assay, CIR-B1301. The conditions noted are these: HMy2.CIR-B1301 cells, reference Cy5-[…], class from inhibition at 5 and 15 μM, flow cytometry MFI; read-out: Binding affinity with HLA-B1301. Here is the method:
as §1

A further test addresses HLA-B1501 (Homo sapiens, UniProt P01889, A329T/A93T/A95T/C349S/D201E/D98Y/E187L/E204Q/E69M/E70A/K202T/N87E/Q94N/R155S/R180W/S121R/S35A/S48A/V306I/V36M/Y140S/Y91S). Nature of the test: Competitive peptide binding assay, CIR-B1501. The settings on record: HMy2.CIR-B1501 cells, reference Cy5-[…], class from inhibition at 5 and 15 μM, flow cytometry MFI; read-out: Binding affinity with HLA-B1501. The method, then:
as §1

The next test concerns the target HLA-B4601 (Homo sapiens, UniProt P01889, A329T/A93R/C349S/D201E/E100V/E187L/E204Q/E69M/E70A/I90K/K202T/N87E/R155S/R180W/S121R/S35A/S48A/V306I/V36M/Y140S). Kind of test: Competitive peptide binding assay, CIR-B4601. The settings on record: HMy2.CIR-B4601 cells, reference Cy5-[…], class from inhibition at 5 and 15 μM, flow cytometry MFI; read-out: Binding affinity with HLA-B4601. Here is the method: as §1

For a further test, the target named is HLA-B5801 (Homo sapiens, UniProt P01889, A329T/C349S/D201E/D98Y/E176V/E187L/E204Q/E69T/G107R/I218V/I90N/K202T/L105A/L119I/N104I/N87E/Q89R/Q94S/R106L/R155S/R180L/R86G/S101N/S121R/S35A/S48A/T118I/V127L/V306I/V36M/Y140S/Y91M). Kind of test: Competitive peptide binding assay, CIR-B5801. The conditions noted are these: HMy2.CIR-B5801 cells, reference Cy5-[…], class from inhibition at 5 and 15 μM, flow cytometry MFI; read-out: Binding affinity with HLA-B5801. The method, then:
as §1

The target in a further test is HLA-B1502 (Homo sapiens, UniProt P01889, A329T/A93T/A95T/C349S/D201E/D98Y/E187L/E204Q/E69M/E70A/H137Y/K202T/L119I/Q94N/R155S/R180L/S121R/S35A/S48A/T118I/V306I/V36M/Y140S/Y91S). Nature of the test: Competitive peptide binding assay, CIR-B1502. The conditions noted are these: HMy2.CIR-B1502 cells, reference Cy5-[…], class from inhibition at 5 and 15 μM, flow cytometry MFI; read-out: Binding affinity with HLA-B1502. The method, then: as §1

The target in another test is HLA-B3501 (Homo sapiens, UniProt P01889, A329T/A93T/A95T/C349S/D201E/D98Y/E176V/E187L/E204Q/E69T/I218V/K202T/L119I/Q94N/R155S/R180L/S121R/S35A/S48A/T118I/V127L/V306I/V36M/Y140S/Y91F). Kind of test: Competitive peptide binding assay, CIR-B3501. The conditions noted are these: HMy2.CIR-B3501 cells, reference Cy5-[…], class from inhibition at 5 and 15 μM, flow cytometry MFI; read-out: Binding affinity with HLA-B3501. The method, then: as §1

Where [1] appears, read: HMy2.CIR-C0102 cells, reference Cy5-[…], class from inhibition at 5 and 15 μM, flow cytometry MFI, read-out: Binding affinity with HLA-C0102.

In the case of `CC(C)C[C@H](NC(=O)[C@@H](NC(=O)[C@@H](NC(=O)CNC(=O)[C@H](CCC(N)=O)NC(=O)[C@@H]1CCCN1C(=O)[C@H](CC(C)C)NC(=O)[C@H](CCC(N)=O)NC(=O)[C@H](CC(C)C)NC(=O)[C@@H](N)C(C)C)[C@@H](C)O)[C@@H](C)O)C(=O)O` [Epitope M18] (H-VLQLPQGTTL-OH; N-terminus and C-terminus assumed), the IC50 on HLA-C0102 (setting [1]) is 5 to 15 µM; on HLA-C0801, more than 15 µM; at HLA-C0304 it was more than 15 µM; on HLA-C0602, more than 15 µM.

Take `CSCC[C@H](NC(=O)[C@H](CO)NC(=O)[C@H](Cc1ccccc1)NC(=O)[C@H](Cc1c[nH]cn1)NC(=O)[C@H](CCCCN)NC(=O)[C@H](CCCNC(=N)N)NC(=O)[C@H](CC(C)C)NC(=O)[C@H](Cc1ccc(O)cc1)NC(=O)[C@H](C)NC(=O)[C@@H](N)Cc1ccc(O)cc1)C(=O)O` [Epitope M26] (H-YAYLRKHFSM-OH; N-terminus and C-terminus assumed): the IC50 is more than 15 µM at HLA-C0102; 5 to 15 µM at HLA-C0304; 5 to 15 µM on HLA-C0302; more than 15 µM on HLA-C0602; more than 15 µM at HLA-C0702. The inhibition at 5 µM on HLA-C0102 amounted to 8.9%. For the same molecule, the inhibition at 15 µM at HLA-C0102 came to 33.9%.

Regarding `CC[C@H](C)[C@H](NC(=O)[C@@H]1CCCN1C(=O)[C@@H](NC(=O)[C@H](Cc1c[nH]cn1)NC(=O)[C@H](CCCCN)NC(=O)[C@H](CO)NC(=O)[C@H](Cc1ccc(O)cc1)NC(=O)[C@@H](NC(=O)[C@@H](N)CCCCN)[C@@H](C)CC)[C@@H](C)O)C(=O)O` [Epitope M34] (H-KIYSKHTPI-OH; N-terminus and C-terminus assumed), the IC50 at HLA-C0102 (setting [1]) was less than 5 µM; at HLA-C0304, more than 15 µM; at HLA-C0302, more than 15 µM; at HLA-C0401, 5 to 15 µM. The inhibition at 5 µM at HLA-C0102 was found to be 77.4%. Further, on HLA-C0102, the inhibition at 15 µM was 91.2%.

On to `CC(C)C[C@H](NC(=O)[C@@H](NC(=O)[C@H](CCCNC(=N)N)NC(=O)[C@H](CO)NC(=O)[C@@H](NC(=O)[C@H](C)NC(=O)[C@@H](N)C(C)C)[C@@H](C)O)[C@@H](C)O)C(=O)N[C@@H](CO)C(=O)N[C@@H](Cc1ccc(O)cc1)C(=O)O` [Epitope M72] (H-VATSRTLSY-OH; N-terminus and C-terminus assumed), for which the IC50 at HLA-C0801 is less than 5 µM; on HLA-C0304, more than 15 µM; on HLA-C0302 it was more than 15 µM; at HLA-C0401, more than 15 µM; on HLA-C0702, more than 15 µM.

Regarding `CC[C@H](C)[C@H](NC(=O)[C@H](CC(N)=O)NC(=O)[C@@H](NC(=O)[C@H](CCC(=O)O)NC(=O)[C@@H]1CCCN1C(=O)[C@H](CC(N)=O)NC(=O)[C@H](Cc1ccccc1)NC(=O)[C@H](CO)NC(=O)[C@@H](N)Cc1c[nH]c2ccccc12)[C@@H](C)O)C(=O)O` [Epitope Y297] (H-WSFNPETNI-OH; N-terminus and C-terminus assumed), the IC50 on HLA-B4001 is more than 15 µM; at HLA-B1301, more than 15 µM; on HLA-B1501, less than 5 µM.

Turning to `C[C@H](NC(=O)CNC(=O)[C@H](C)NC(=O)[C@@H](NC(=O)[C@@H](N)Cc1c[nH]c2ccccc12)[C@@H](C)O)C(=O)N[C@@H](C)C(=O)N[C@@H](C)C(=O)N[C@@H](Cc1ccc(O)cc1)C(=O)N[C@@H](Cc1ccc(O)cc1)C(=O)O` [Epitope Y174] (H-WTAGAAAYY-OH; N-terminus and C-terminus assumed), the IC50 on HLA-B4601 is more than 15 µM; at HLA-B4001 it was more than 15 µM; at HLA-B5801, more than 15 µM; on HLA-B1502 it was less than 5 µM; at HLA-B1501, 5 to 15 µM; at HLA-B3501, more than 15 µM.

Take `C[C@@H](O)[C@H](NC(=O)[C@H](CCC(N)=O)NC(=O)[C@H](CC(=O)O)NC(=O)[C@H](Cc1c[nH]c2ccccc12)NC(=O)[C@H](Cc1ccc(O)cc1)NC(=O)[C@H](CCCCN)NC(=O)[C@H](Cc1ccccc1)NC(=O)[C@@H](N)Cc1ccc(O)cc1)C(=O)N[C@@H](Cc1ccc(O)cc1)C(=O)O` [Epitope M122] (H-YFKYWDQTY-OH; N-terminus and C-terminus assumed): the IC50 on HLA-C0102 (setting [1]) was more than 15 µM; at HLA-C0304, more than 15 µM; at HLA-C0302, more than 15 µM; at HLA-C0602, more than 15 µM; at HLA-C0702, 5 to 15 µM.

The values are drawn from article PMC12133982, “Predominant T-cell epitopes of SARS-CoV-2 restricted by multiple prevalent HLA-B and HLA-C allotypes in Northeast Asia” (Frontiers in Immunology, 2025).
